What all share (type): in vivo, Male Wistar strain rats
The test system of data set [1] is GM-induced nephritis rats. The data set can be described thus: Organ wet weight / body weight ratio in GM-induced nephritis rats. The following applies: for Adrenal gland weight / Kidney weight / Liver weight / Spleen weight / Thymus weight: 8th day, mean ± S.E. of 8 to 9 rats, GM 80 mg/kg i.p., 7.5% GA via drinking water. On the procedure:
(§1) Gum Arabic was dissolved in water and filtered. The filtrate was spray-dried at about 120° C. to give the GA used in this experiment. GA was dissolved in tap water to prepare a 7.5% GA solution (7.5 g/100 mL, 7.5% GA). The 7.5% GA solution was used for oral administration in drinking water. Gentamicin sulfate (GM) was purchased from Sigma Chemical Co. and used as its saline solution. Prednisolone (PRD) was purchased from Sigma Chemical Co.
(§2) Male Wistar strain rats weighing 200-220 g (n=8 to 9 per group) were provided by SLC (Japan SLC, Hamamatsu). They were maintained in an air-conditioned room with lighting from 7 a.m. to 7 p.m. The room temperature (about 23° C.) and humidity (about 60%) were controlled automatically. They were kept for one week before treatment. Laboratory chows (Labo MR Stock, Nihon Nosan Kogyo K.K., Yokohama) and drinking water were freely available.
(§3) Nephritis was induced in rats by daily intraperitoneal injections of GM (80 mg/kg, i.p.) at 10:00 a.m. for 8 consecutive days. Animals injected with saline (1 mL/kg, i.p.) served as normal control. GA (7.5% GA) via the drinking water was administered for 8 consecutive days.
(§4) Rats were randomly assigned to the following eight groups of 8 to 9 rats each:
(§5) Group 1 (Normal): received daily intraperitoneal injections of saline (1 mL/kg, i.p.) for 8 days with tap water as drinking water.
(§6) Group 2 (7.5% GA): received daily saline (1 mL/kg, i.p.) and 7.5% GA via drinking water for 8 days.
(§7) Group 3 (GM): received daily GM (80 mg/kg, i.p.) for 8 days with tap water as drinking water.
(§8) Group 4 (GM+7.5% GA): received daily GM (80 mg/kg, i.p.) and 7.5% GA via the drinking water for 8 days.
(§9) Group 5 (GM+PRD/water): received daily PRD/water (2 mg/kg, p.o.) at 1 hr before daily GM (80 mg/kg, i.p.) administration for 8 days with tap water as drinking water.
(§10) Group 6 (GM+PRD/water+7.5% GA): received daily PRD/water (2 mg/kg, p.o.) at 1 hr before daily GM (80 mg/kg, i.p.) administration and 7.5% GA via the drinking water for 8 days.
On the last day, the organs (adrenal gland, thymus, spleen, kidney and liver) were isolated from the rats, and the ratio of each organ wet weight (mg)/body weight (100 g) was determined.
(§11) The experimental data were tested for statistical significant differences by means of Bonferroni/Dunn's method (Multiple Range Test).
(§12) PRD (2 mg/kg, p.o.) was orally administered in a form of suspension (0.2 mL/100 g weight of rat) in tap water (PRD/water) 1 hr before GM (80 mg/kg, i.p.) administration to rats of group 5 (GM+PRD/water) and group 6 (GM+PRD/water+7.5% GA). Group 5 received tap water as drinking water. Group 6 received 7.5% GA as drinking water.

Data set [2] concerns GM-induced nephritis rats. The data set can be described thus: Urine volume and urinary protein in GM-induced nephritis rats. The following applies: 8th day; for Effect on urinary protein (in words) / Effect on urine volume (in words): GM-induced nephritis rats; for Urinary protein / Urine volume: mean ± S.E. of 8 to 9 rats, 7.5% GA via drinking water. On the procedure:
as §1, §2, §3, §4, §5, §6, §7, §8, §9, §10
(§13) 24 hr urine samples were obtained by keeping each animal in an individual metabolic cage for 24 hr at 10:00 a.m. on the 8th day. Rats were fasted for 1 day before urine collection. The collected urine was then centrifuged at 1,600×g for 10 min, and the supernatant was used for protein determination. Immediately after the urine collection, blood sample was taken from abdominal veins. The blood was centrifuged at 1,600×g for 10 min to give serum for the determination of blood urea nitrogen (BUN), serum creatinine and creatinine clearance.
(§14) The urinary protein excretion was determined by the method of Kingsbury et al (The Journal of Laboratory and Clinical Medicine, 11, 981-989, 1926) and expressed as mg/day. Briefly, a 3% solution of sulfosalicylic acid was added to a diluted urine sample, and placed at room temperature for 10 minutes. Then concentrations of urinary protein were determined from absorbance at 400 nm, and the urinary protein excretion (mg/day) was calculated from the volume of 24 hr urine. Commercial kits (Wako Pure Chemical Industries, Ltd.) were used to assay BUN, creatinine and creatinine clearance in serum with the following assay kits: Urea nitrogen B and Creatinine.
as §11, §12

Data set [3] deals with GM-induced nephritis rats. Nature of the data set: BUN, serum creatinine and creatinine clearance in GM-induced nephritis rats. The following applies: 8th day; for Effect on BUN level (in words): GM-induced nephritis rats; for BUN / Creatinine clearance / Serum creatinine: mean ± S.E. of 8 to 9 rats. On the procedure:
as §1, §2, §3, §4, §5, §6, §7, §8, §9, §10, §13, §14, §11, §12

The mark [4] stands for this setting: Table 2, GM 80 mg/kg i.p. 8 days, 7.5% GA group got saline, no GM.
Where [5] appears, read: Table 5, GM 80 mg/kg i.p., PRD 2 mg/kg p.o. 1 hr before GM.
Setting [6] is: Table 1, GM 80 mg/kg i.p. 8 days, 7.5% GA via drinking water, 7.5% GA group got saline, no GM.
[7] abbreviates: Table 4, GM 80 mg/kg i.p., PRD 2 mg/kg p.o. 1 hr before GM, 7.5% GA via drinking water.

Turning to `C[C@]12C=CC(=O)C=C1CC[C@@H]1[C@@H]2[C@@H](O)C[C@@]2(C)[C@H]1CC[C@]2(O)C(=O)CO` [PRD, Prednisolone], the “Effect on weight of thymus (in words)” value in data set [1] (rat, in vivo) is given as “further decreased”. For the same compound, in data set [2], the “Effect on urinary protein (in words)” value is recorded as “significantly inhibited the increment of urinary protein” and the “Effect on urine volume (in words)” value is on record as “did not show any effects on the increment of urine volume”. For the same compound, the “Effect on BUN level (in words)” value in data set [3] is given as “significant protective effect on increments of BUN level”.

Regarding Gentamicin sulfate [GM], the “Effect on kidney weight ratio (in words)” value in data set [1] (GM-induced nephritis rats, last day) was “slightly increased”. In data set [1] (GM-induced nephritis rats, last day, side-effect of PRD), the “Effect on weight of thymus (in words)” value is reported as “tendency to decrease”. Also, in data set [1] (Table 3), the Adrenal gland weight is recorded as 23.5 ± 1.4 mg/100 g of body weight, the Kidney weight is reported as 0.89 ± 0.03 g/100 g of body weight, the Liver weight is reported as 2.95 ± 0.07 g/100 g of body weight and the Spleen weight was 209.4 ± 10.8 mg/100 g of body weight. For the same compound, in data set [1] (Table 3), the Thymus weight is on record as 223.5 ± 15.2 mg/100 g of body weight. In data set [1] (Table 6, PRD 2 mg/kg p.o.), the Adrenal gland weight was 23.5 ± 1.4 mg/100 g of body weight, the Kidney weight is 0.89 ± 0.03 g/100 g of body weight, the Liver weight is listed as 2.95 ± 0.07 g/100 g of body weight and the Spleen weight is on record as 209.4 ± 10.8 mg/100 g of body weight. In data set [1] (Table 6, PRD 2 mg/kg p.o.), the Thymus weight is recorded as 223.5 ± 15.2 mg/100 g of body weight. In addition, in data set [2], the “Effect on urinary protein (in words)” value is given as “increased” and the “Effect on urine volume (in words)” value was “increased”. In data set [2] (setting [4]), this compound showed a Urinary protein of 26.7 ± 3.3 mg/24 hr and a Urine volume of 43.1 ± 4.3 mL/24 hr. Besides, in data set [2] (setting [5]), the Urinary protein was 26.7 ± 3.3 mg/24 hr and the Urine volume was determined as 43.1 ± 4.3 mL/24 hr. Besides, in data set [3], the “Effect on BUN level (in words)” value was “markedly increased”. In addition, in data set [3] (Table 1, GM 80 mg/kg i.p. 8 days, 7.5% GA via drinking water 8 days, 7.5% GA group got saline, no GM), the BUN was 78.0 ± 11.9 mg/dL. In data set [3] (setting [6]), this compound displayed a Creatinine clearance of 0.19 ± 0.10 mL/min and a Serum creatinine of 2.36 ± 0.41 mg/dL. In data set [3] (setting [7]), this compound showed a BUN of 78.0 ± 11.9 mg/dL, a Creatinine clearance of 0.19 ± 0.10 mL/min and a Serum creatinine of 2.36 ± 0.41 mg/dL.

The values above are taken from patent US20090060944A1, “Enhancer Of The Effect Of Adrenocorticoid,Comprising Gum Arabic” (priority 2004, published 2009).
